Assays:
[1] = Pharmacological activity of metabolite; details: major metabolite
Description: Pyridinyl methylation of AZD0328 was a unique polar metabolite (M2) observed in dog hepatocytes. Other minor hydroxylation/oxidation and glucuronide conjugation products were detected in monkey, dog, rat, and guinea pig hepatocyte incubations and mini-pig hepatic microsome incubations. […] Analysis of plasma and urine samples from either orally or iv dosed rats confirmed N-oxide product of AZD0328 was a main product in the excretion and circulation. The percentage of AZD0328 N-oxide in the plasma from male rats was much higher than from females.

rats = experiment: Nicotine drug discrimination; details: rat, sc, training drug
Description: AZD0328 was tested for its potential to produce nicotine-like stimulus effects after subcutaneous administration in a drug-discrimination procedure (Table 3).

| Compound | Pharmacological activity [1] | Response rates (rats) |
| --- | --- | --- |
| [O-][N+]12CCC(CC1)C1(Cc3cccnc3O1)C2 (centres unmarked) [quinuclidinyl-N-oxide of AZD0328] | pharmacological inactive |  |
| CN1CCCC1c1cccnc1 (centres unmarked) [nicotine, reference compound] |  | not significantly affected |

From patent US20100168146A1, “Composition Comprising (R)-Spiro[L-Azabicyclo[2.2.2]Octane-3,2'(3'H)-Furo[2,3-B]Pyridine (AZD0328) and its Use in the Treatment of Alzheimer's Disease, ADHD or Cognitive Dysfunction” (priority 2008, published 2010)
